Experimental data: ChEMBL document CHEMBL1955728, “3,5-Disubstituted indole derivatives as selective human neuronal nitric oxide synthase (nNOS) inhibitors” (Bioorg Med Chem Lett, 2012)
Calls of active or inactive are those of the source. No cut-off for these calls is given here.

What was measured:
[1] = target: Nitric oxide synthase 1 (Homo sapiens, UniProt P29475); assay: Inhibition of human nNOS expressed in baculovirus infected insect Sf9 cells assessed as conversion of [3H]-L-arginine to [3H]-L-citrulline
Nitric oxide synthase 1 (Homo sapiens, UniProt P29475), sequence (P29475 whole entry): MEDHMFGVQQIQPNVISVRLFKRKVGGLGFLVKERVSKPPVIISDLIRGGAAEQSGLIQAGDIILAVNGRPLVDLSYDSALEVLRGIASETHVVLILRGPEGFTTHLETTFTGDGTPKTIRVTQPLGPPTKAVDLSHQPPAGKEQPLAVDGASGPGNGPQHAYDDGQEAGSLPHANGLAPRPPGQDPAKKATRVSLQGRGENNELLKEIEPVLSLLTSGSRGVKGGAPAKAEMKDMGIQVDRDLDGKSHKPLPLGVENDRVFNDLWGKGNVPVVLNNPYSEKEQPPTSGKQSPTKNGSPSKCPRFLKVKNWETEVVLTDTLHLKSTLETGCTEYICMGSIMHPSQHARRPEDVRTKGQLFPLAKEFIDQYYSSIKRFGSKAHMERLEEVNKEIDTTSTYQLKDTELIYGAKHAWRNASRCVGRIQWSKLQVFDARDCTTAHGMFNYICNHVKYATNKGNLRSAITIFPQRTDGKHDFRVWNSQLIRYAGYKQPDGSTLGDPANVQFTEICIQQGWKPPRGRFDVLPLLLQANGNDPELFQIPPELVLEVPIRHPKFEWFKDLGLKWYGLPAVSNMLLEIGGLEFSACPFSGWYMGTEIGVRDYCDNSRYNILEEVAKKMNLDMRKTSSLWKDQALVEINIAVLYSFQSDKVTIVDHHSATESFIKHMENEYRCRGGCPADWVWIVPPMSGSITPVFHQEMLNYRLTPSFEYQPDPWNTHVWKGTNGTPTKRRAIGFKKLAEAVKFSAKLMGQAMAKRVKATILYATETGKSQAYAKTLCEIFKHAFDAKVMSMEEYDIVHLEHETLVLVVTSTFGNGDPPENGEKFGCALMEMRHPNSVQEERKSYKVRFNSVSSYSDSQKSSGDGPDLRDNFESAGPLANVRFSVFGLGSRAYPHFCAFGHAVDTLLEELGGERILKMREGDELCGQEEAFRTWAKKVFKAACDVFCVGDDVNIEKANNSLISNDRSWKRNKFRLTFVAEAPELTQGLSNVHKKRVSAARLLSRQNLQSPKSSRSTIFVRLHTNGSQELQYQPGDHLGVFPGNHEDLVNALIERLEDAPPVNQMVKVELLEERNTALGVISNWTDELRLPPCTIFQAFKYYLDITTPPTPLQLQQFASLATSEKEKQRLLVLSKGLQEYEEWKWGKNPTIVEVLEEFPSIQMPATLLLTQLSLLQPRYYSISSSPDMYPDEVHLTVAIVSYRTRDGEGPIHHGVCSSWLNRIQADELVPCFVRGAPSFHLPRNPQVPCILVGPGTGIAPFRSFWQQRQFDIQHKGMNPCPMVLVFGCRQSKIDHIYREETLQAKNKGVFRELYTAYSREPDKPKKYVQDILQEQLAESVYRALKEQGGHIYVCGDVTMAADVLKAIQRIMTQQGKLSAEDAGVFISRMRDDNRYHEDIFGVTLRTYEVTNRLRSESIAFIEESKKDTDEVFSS

[2] = target: T1, Nitric oxide synthase 3 (Homo sapiens, UniProt P29474); assay: Inhibition of human eNOS expressed in baculovirus infected insect Sf9 cells assessed as conversion of [3H]-L-arginine to [3H]-L-citrulline
T1 sequence (P29474 whole entry): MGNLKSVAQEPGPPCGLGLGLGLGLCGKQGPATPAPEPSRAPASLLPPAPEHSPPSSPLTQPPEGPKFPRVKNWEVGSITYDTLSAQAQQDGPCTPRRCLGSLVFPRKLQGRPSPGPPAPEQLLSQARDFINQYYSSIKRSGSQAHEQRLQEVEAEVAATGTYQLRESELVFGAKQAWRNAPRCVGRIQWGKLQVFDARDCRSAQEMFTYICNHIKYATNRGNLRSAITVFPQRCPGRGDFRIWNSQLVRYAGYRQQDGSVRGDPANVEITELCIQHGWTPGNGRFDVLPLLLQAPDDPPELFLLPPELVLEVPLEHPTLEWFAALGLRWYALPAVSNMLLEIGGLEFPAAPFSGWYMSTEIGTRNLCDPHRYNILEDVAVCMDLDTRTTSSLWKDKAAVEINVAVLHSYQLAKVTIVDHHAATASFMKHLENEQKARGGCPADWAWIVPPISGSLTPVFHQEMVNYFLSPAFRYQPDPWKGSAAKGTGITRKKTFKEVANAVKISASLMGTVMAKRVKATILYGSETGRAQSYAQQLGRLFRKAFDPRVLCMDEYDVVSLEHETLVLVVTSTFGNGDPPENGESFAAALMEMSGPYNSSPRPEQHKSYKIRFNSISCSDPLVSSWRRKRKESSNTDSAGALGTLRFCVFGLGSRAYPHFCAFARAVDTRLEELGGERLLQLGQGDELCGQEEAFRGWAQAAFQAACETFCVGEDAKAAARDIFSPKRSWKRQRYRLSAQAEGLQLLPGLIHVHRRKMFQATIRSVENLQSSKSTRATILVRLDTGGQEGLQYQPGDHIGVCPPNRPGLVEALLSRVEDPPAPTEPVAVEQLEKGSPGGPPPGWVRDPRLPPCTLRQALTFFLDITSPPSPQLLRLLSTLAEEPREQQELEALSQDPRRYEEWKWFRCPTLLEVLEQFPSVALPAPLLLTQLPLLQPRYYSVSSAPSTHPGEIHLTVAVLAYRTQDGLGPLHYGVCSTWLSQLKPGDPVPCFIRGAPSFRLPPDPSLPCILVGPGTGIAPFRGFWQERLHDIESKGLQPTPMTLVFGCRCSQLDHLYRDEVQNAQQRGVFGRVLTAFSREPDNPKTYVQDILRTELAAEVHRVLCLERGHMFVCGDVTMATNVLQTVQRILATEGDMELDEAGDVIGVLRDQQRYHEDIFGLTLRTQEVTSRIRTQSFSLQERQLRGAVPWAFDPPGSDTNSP

[3] = target: Nitric oxide sythases; iNOS & nNOS (Homo sapiens) (UniProt P29475+P35228); assay: Selectivity ratio of IC50 for human iNOS to IC50 for human nNOS
Nitric oxide sythases; iNOS & nNOS (Homo sapiens), sequence (P29475 whole entry, looked up): as the sequence (P29475 whole entry) above
Nitric oxide sythases; iNOS & nNOS (Homo sapiens), sequence (P35228 whole entry, looked up): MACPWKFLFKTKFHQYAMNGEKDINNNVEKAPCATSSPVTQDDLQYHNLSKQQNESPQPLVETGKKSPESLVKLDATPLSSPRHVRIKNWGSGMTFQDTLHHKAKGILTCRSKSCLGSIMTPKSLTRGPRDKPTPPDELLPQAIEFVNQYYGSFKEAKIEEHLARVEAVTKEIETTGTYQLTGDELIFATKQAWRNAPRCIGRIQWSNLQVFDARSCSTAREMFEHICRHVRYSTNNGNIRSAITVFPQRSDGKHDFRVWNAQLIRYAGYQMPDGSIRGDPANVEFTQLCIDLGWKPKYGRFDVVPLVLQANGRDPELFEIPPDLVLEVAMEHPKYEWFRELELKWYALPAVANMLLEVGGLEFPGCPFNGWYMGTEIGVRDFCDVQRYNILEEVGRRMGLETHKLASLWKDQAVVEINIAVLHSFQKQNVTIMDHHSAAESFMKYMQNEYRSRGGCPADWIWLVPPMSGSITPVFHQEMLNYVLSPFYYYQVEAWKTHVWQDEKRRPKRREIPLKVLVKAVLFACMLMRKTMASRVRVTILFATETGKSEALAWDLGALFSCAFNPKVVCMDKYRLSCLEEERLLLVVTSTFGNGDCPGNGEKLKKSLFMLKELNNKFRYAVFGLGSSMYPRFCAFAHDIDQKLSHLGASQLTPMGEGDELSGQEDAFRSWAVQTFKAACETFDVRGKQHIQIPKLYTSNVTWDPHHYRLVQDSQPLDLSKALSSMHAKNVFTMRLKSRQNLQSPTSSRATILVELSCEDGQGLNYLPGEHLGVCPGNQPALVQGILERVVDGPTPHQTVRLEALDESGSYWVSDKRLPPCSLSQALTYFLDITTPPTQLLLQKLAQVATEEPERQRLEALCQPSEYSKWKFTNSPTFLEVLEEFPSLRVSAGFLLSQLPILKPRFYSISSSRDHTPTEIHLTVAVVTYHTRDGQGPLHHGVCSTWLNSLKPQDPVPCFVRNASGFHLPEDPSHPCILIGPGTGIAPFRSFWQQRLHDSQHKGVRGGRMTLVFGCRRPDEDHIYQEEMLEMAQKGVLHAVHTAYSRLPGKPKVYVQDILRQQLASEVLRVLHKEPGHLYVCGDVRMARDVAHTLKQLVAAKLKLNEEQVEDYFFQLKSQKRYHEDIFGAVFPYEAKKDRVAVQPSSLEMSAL

[4] = species on record: Homo sapiens; assay: Selectivity ratio of IC50 for human eNOS to IC50 for human nNOS
[5] = target: Nitric oxide synthase, inducible (Homo sapiens, UniProt P35228); assay: Inhibition of human iNOS expressed in baculovirus infected insect Sf9 cells assessed as conversion of [3H]-L-arginine to [3H]-L-citrulline
Nitric oxide synthase, inducible, sequence (P35228 whole entry): as the sequence (P35228 whole entry, looked up) above

[6] = tested on: Rattus norvegicus; assay: Antihyperalgesic activity in rat L5/L6 SNL model of neuropathic pain assessed as reversal of thermal hyperalgesia at 10 mg/kg, ip measured after 30 mins; type: functional; conditions: route intraperitoneal
[7] = target: Cytochrome P450 2C9 (Homo sapiens, UniProt P11712); assay: Inhibition of human CYP2C9; type: ADME
Cytochrome P450 2C9, sequence (P11712 whole entry): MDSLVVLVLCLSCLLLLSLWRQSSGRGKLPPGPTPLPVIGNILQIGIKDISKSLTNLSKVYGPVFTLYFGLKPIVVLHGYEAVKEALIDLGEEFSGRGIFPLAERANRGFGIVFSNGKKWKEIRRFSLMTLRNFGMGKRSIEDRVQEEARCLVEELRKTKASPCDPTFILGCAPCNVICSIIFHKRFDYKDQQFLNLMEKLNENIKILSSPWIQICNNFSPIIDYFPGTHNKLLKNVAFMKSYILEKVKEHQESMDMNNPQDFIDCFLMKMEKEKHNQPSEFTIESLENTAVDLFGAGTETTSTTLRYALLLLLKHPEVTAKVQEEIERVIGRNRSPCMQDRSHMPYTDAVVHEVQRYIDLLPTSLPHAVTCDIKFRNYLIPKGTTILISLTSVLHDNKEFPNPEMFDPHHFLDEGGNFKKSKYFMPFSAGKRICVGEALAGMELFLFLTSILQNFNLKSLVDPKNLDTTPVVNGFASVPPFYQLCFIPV

[8] = target: Cytochrome P450 2C19 (Homo sapiens, UniProt P33261); assay: Inhibition of human CYP2C19; type: ADME
Cytochrome P450 2C19, sequence (P33261 whole entry): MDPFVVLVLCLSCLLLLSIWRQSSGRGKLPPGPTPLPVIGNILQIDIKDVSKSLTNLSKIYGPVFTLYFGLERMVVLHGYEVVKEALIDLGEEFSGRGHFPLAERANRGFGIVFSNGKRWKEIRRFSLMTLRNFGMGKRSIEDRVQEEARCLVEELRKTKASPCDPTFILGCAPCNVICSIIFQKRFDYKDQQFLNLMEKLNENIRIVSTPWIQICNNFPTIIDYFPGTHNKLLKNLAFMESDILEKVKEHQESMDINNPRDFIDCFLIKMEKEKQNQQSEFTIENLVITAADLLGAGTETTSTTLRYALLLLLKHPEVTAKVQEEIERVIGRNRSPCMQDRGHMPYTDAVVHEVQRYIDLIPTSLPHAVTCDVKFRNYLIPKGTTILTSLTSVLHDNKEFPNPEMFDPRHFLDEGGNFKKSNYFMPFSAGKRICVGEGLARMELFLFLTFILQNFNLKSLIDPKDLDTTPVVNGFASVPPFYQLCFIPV

[9] = target: Nitric oxide synthase 1 (Rattus norvegicus, UniProt P29476); assay: Inhibition of rat nNOS
Nitric oxide synthase 1 (Rattus norvegicus, UniProt P29476), sequence (P29476 whole entry): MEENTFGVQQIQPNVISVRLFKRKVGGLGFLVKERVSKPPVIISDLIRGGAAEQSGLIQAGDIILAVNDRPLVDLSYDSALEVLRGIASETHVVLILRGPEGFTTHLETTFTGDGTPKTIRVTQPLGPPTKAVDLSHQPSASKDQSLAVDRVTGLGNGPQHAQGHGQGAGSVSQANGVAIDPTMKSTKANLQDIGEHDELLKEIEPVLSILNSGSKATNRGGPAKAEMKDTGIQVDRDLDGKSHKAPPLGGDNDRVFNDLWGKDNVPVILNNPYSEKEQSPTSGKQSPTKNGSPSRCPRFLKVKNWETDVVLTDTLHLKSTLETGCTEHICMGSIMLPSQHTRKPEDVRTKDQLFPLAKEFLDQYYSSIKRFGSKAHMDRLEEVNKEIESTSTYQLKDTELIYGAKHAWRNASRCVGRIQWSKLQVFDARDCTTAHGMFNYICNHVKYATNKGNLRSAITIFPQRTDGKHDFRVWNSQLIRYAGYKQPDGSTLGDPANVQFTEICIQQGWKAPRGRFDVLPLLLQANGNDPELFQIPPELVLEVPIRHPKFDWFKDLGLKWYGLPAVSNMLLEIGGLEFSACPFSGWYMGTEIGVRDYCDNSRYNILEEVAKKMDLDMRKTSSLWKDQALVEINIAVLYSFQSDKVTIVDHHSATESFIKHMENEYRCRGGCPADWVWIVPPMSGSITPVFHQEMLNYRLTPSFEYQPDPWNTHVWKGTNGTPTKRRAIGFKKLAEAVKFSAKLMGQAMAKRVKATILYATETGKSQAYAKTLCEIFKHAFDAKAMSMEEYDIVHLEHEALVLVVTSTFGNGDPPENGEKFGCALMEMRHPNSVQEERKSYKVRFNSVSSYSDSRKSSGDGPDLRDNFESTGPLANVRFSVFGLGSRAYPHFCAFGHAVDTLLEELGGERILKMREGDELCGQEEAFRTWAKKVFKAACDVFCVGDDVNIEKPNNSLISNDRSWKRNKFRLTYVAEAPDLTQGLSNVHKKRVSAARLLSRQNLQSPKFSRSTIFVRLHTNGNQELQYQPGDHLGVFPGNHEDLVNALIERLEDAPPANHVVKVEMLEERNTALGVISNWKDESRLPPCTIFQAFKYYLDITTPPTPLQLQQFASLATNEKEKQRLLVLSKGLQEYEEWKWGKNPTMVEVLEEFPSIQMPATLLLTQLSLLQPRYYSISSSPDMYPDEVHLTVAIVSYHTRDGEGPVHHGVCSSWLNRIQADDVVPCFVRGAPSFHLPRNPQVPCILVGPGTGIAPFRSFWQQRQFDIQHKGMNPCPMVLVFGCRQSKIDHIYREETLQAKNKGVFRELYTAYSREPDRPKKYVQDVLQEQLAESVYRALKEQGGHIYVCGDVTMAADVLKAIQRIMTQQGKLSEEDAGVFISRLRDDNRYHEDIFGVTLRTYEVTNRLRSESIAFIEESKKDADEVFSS

[10] = target: Cytochrome P450 3A4 (Homo sapiens, UniProt P08684); assay: Inhibition of human CYP3A4; type: ADME
[11] = target: T2, Cytochrome P450 1A2 (Homo sapiens, UniProt P05177); assay: Inhibition of human CYP1A2; type: ADME
T2 sequence (P05177 whole entry): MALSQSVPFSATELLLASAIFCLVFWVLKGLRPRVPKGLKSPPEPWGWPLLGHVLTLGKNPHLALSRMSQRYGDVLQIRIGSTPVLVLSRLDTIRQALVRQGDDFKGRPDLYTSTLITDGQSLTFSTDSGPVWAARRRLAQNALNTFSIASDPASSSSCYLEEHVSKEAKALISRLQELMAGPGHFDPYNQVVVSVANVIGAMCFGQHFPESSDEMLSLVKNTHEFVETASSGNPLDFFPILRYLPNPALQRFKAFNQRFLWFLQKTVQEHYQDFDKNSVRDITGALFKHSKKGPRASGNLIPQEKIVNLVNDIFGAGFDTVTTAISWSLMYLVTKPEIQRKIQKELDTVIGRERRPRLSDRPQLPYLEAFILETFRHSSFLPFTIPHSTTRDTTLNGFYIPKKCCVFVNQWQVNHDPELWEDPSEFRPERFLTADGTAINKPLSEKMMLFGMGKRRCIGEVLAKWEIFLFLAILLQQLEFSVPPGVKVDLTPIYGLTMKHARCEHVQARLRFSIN

[12] = Vasoconstrictive activity in human arteries assessed as inhibition of acetylcholine-induced vasorelaxation at 10 uM in presence of thromboxane A2 mimetic agent U46619; type: tissue-based, Artery
[13] = target: Cytochrome P450 2D6 (Homo sapiens, UniProt P10635); assay: Inhibition of human CYP2D6; type: ADME
[14] = tested on: Rattus norvegicus; assay: Antihyperalgesic activity in rat L5/L6 SNL model of neuropathic pain assessed as reversal of thermal hyperalgesia at 10 mg/kg, ip measured after 30 to 120 mins; type: functional, organism-based; design: dose 10 mg/kg

Question: Which results are given for `CN1CC=C(c2c[nH]c3ccc(CNC(=N)c4cccs4)cc23)CC1`?
Answer: IC50 [1]: 1.29 µM; IC50 [2]: 64.7 µM

Question: Which Ratio IC50 [3] does the source give for `CS/C(N)=N/c1ccc2[nH]cc(C3=CCN(C)CC3)c2c1` here?
Answer: Its Ratio IC50 is 8.

Question: And the Ratio IC50 [4]?
Answer: Its Ratio IC50 is 16.

Question: For `CN1CCC(c2c[nH]c3ccc(/N=C(\N)c4ccco4)cc23)CC1`, which Ratio IC50 [3] is on record?
Answer: The Ratio IC50 was 48.

Question: And the Ratio IC50 [4]?
Answer: The Ratio IC50 was 43.

Question: With `CN1CCC(c2c[nH]c3ccc(NC(=N)c4ccco4)cc23)CC1` as the compound, how does the IC50 [5] read?
Answer: Its IC50 is 108 µM.

Question: Which results are given for `CN1CC=C(c2c[nH]c3ccc(C/N=C(\N)c4cccs4)cc23)CC1`?
Answer: Ratio IC50 [3]: 66; Ratio IC50 [4]: 50

Question: For `CN1CCC(c2c[nH]c3ccc(/N=C(\N)c4cccs4)cc23)CC1`, which Ratio IC50 [3] is on record?
Answer: The Ratio IC50 was 57.

Question: For `CN1CCC(c2c[nH]c3ccc(NC(=N)c4cccs4)cc23)CC1`, which IC50 [1] is on record?
Answer: Its IC50 is 1.02 µM.

Question: And the IC50 [2]?
Answer: The IC50 was 24.2 µM.

Question: Which results are given for `Cc1ccc(C(=N)Nc2ccc3[nH]cc(C4=CCN(C)CC4)c3c2)s1`?
Answer: Ratio IC50 [4]: 6; IC50 [1]: 10.4 µM; IC50 [2]: 65.3 µM

Question: Which Activity [6] does the source give for `CN1CC=C(c2c[nH]c3ccc(NC(=N)c4ccco4)cc23)CC1.Cl.Cl` here?
Answer: The Activity was 94%.

Question: What about the IC50 [7] of the same compound?
Answer: The IC50 was > 100 µM.

Question: And the IC50 [8]?
Answer: The IC50 was > 100 µM.

Question: What about the IC50 [9] of the same compound?
Answer: Its IC50 is 2.6 µM.

Question: And the IC50 [10]?
Answer: Its IC50 is > 100 µM.

Question: And the IC50 [11]?
Answer: The IC50 was 9.52 µM.

Question: And the IC50 [1]?
Answer: Its IC50 is 0.55 µM.

Question: And the IC50 [12]?
Answer: Its IC50 is “Not Active”.

Question: And the IC50 [2]?
Answer: Its IC50 is 36.1 µM.

Question: And the IC50 [13]?
Answer: Its IC50 is 20.5 µM.

Question: For `CN1CC=C(c2c[nH]c3cc(NC(=N)c4cccs4)ccc23)CC1`, which Ratio IC50 [3] is on record?
Answer: Its Ratio IC50 is 15.

Question: What about the Ratio IC50 [4] of the same compound?
Answer: Its Ratio IC50 is 33.

Question: With `CN1CC=C(c2c[nH]c3ccc(/N=C(\N)c4cccs4)cc23)CC1` as the compound, how does the Ratio IC50 [3] read?
Answer: The Ratio IC50 was 105.

Question: And the Ratio IC50 [4]?
Answer: The Ratio IC50 was 118.

Question: With `CN1CC=C(c2c[nH]c3ccc(NC(=S)NC(=O)c4ccccc4)cc23)CC1` as the compound, how does the Ratio IC50 [4] read?
Answer: The Ratio IC50 was 3.

Question: For `CSC(=N)Nc1ccc2[nH]cc(C3=CCN(C)CC3)c2c1`, which IC50 [5] is on record?
Answer: The IC50 was 17.1 µM.

Question: For `CCS/C(N)=N/c1ccc2[nH]cc(C3=CCN(C)CC3)c2c1`, which Ratio IC50 [4] is on record?
Answer: The Ratio IC50 was 22.

Question: What does the source list for `CN1CC=C(c2c[nH]c3ccc(/N=C(\N)c4ccco4)cc23)CC1`?
Answer: Activity [14]: Active; Ratio IC50 [3]: 106; Ratio IC50 [4]: 66

Question: Which IC50 [9] does the source give for `CN1CC=C(c2c[nH]c3ccc(NC(=N)c4cccs4)cc23)CC1` here?
Answer: Its IC50 is 2.3 µM.

Question: What about the IC50 [1] of the same compound?
Answer: Its IC50 is 0.19 µM.

Question: And the IC50 [2]?
Answer: The IC50 was 22.4 µM.

Question: What does the source list for `CN1CCC(c2c[nH]c3ccc(NC(=N)c4ccccc4)cc23)CC1`?
Answer: Ratio IC50 [4]: 14; IC50 [1]: 18 µM; IC50 [2]: 249 µM
